For orientation: inhibition means the drop in the measured response relative to a control, in per cent.

In this assay the target is CK2α (Homo sapiens, UniProt P68400). Put plainly: biochemical. Conditions: read-out: % inhibition of phosphorylation activity of CK2α.
CK2α, sequence (P68400 2-329): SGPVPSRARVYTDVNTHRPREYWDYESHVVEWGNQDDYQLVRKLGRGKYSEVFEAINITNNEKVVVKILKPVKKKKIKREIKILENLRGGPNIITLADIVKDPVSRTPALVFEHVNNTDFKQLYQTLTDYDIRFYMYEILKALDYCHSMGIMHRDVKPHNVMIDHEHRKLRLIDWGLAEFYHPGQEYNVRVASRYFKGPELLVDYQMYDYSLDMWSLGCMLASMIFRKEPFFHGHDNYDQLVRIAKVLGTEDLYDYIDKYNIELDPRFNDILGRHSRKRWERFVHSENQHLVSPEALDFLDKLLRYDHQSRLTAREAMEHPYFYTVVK

For `NCc1cc(Cl)cc(-c2cccc3[nH]ccc23)c1` [Compound 7, (3-chloro-5-(1H-indol-4-yl)phenyl)methanamine], the inhibition at 100 µM turned out to be 18%.

These data come from article PMC6562204 (Bioorganic & Medicinal Chemistry, 2018).
